Results: article PMC10209615, “Pharmacological inhibition of LSD1 suppresses growth of hepatocellular carcinoma by inducing GADD45B” (MedComm, 2023)

Assays:
Experiment in all cases: Kinase activity detection (Eurofins)
Assay type in all cases: biochemical
[1] = target: T1, EphA7 (Rattus norvegicus, UniProt P54759); conditions: ZY0511 1 µM, read-out: Inhibition rate
T1 construct: purchased Eurofins Pharma Discovery Services
Experimental: (§1) The activity of ZY0511 against 104 cancer‐related kinases was carried out by Eurofins Pharma Discovery Services (Celle Lévescault, France).

[2] = target: T2, CK1γ2 (Homo sapiens, UniProt P78368); conditions: ZY0511 1 µM, read-out: Inhibition rate
T2 construct: purchased Eurofins Pharma Discovery Services
Experimental: as §1

[3] = target: T3, ErbB4 (Homo sapiens, UniProt Q15303); conditions: ZY0511 1 µM, read-out: Activation rate
T3 construct: purchased Eurofins Pharma Discovery Services (KinaseProfiler)
Experimental: as §1

[4] = target: T4, CHK2 (Homo sapiens, UniProt O96017); conditions: ZY0511 1 µM, read-out: Activation rate
T4 construct: purchased Eurofins Pharma Discovery Services (KinaseProfiler)
Experimental: as §1

[5] = target: T5, Fes (Homo sapiens, UniProt P07332); conditions: ZY0511 1 µM, read-out: Inhibition rate
T5 construct: purchased Eurofins Pharma Discovery Services (KinaseProfiler)
Experimental: as §1

[6] = target: T6, EGFR (L858R) (Homo sapiens, UniProt P00533, L858R); conditions: ZY0511 1 µM, read-out: Inhibition rate
T6 construct: purchased Eurofins Pharma Discovery Services (KinaseProfiler)
Experimental: as §1

[7] = target: T7, Mer (Homo sapiens, UniProt Q12866); conditions: ZY0511 1 µM, read-out: Activation rate
T7 construct: purchased Eurofins Pharma Discovery Services (KinaseProfiler)
Experimental: as §1

[8] = target: T8, Flt3 (Homo sapiens, UniProt P36888); conditions: ZY0511 1 µM, read-out: Inhibition rate
T8 construct: purchased Eurofins Pharma Discovery Services (KinaseProfiler)
Experimental: as §1

[9] = target: T9, PAK1 (Homo sapiens, UniProt Q13153); conditions: ZY0511 1 µM, read-out: Activation rate
T9 construct: purchased Eurofins Pharma Discovery Services (KinaseProfiler)
Experimental: as §1

[10] = target: T10, ATM (Homo sapiens, UniProt Q13315)
T10 construct: purchased Eurofins Pharma Discovery Services
Experimental: as §1

[11] = target: T11, FAK (Homo sapiens, UniProt Q05397); conditions: ZY0511 1 µM, read-out: Inhibition rate
T11 construct: purchased Eurofins Pharma Discovery Services
Experimental: as §1

[12] = target: T12, B-Raf (V599E) (Homo sapiens, UniProt P15056, V600E); conditions: ZY0511 1 µM, read-out: Inhibition rate
T12 construct: purchased Eurofins Pharma Discovery Services (KinaseProfiler)
Experimental: as §1

[13] = target: T13, Ret (Homo sapiens, UniProt P07949); conditions: ZY0511 1 µM, read-out: Activation rate
T13 construct: purchased Eurofins Pharma Discovery Services (KinaseProfiler)
Experimental: as §1

[14] = target: T14, HIPK2 (Homo sapiens, UniProt Q9H2X6); conditions: ZY0511 1 µM, read-out: Inhibition rate
T14 construct: purchased Eurofins Pharma Discovery Services
Experimental: as §1

[15] = target: T15, HIPK3 (Homo sapiens, UniProt Q9H422); conditions: ZY0511 1 µM, read-out: Inhibition rate
T15 construct: purchased Eurofins Pharma Discovery Services (KinaseProfiler)
Experimental: as §1

[16] = target: T16, CDK5/p35 (Homo sapiens, UniProt Q00535); conditions: ZY0511 1 µM, read-out: Inhibition rate
T16 construct: purchased Eurofins Pharma Discovery Services (KinaseProfiler)
Experimental: as §1

[17] = target: T17, c-RAF (Homo sapiens, UniProt P04049); conditions: ZY0511 1 µM, read-out: Inhibition rate
T17 construct: purchased Eurofins Pharma Discovery Services (KinaseProfiler)
Experimental: as §1

[18] = target: T18, p70S6K (Homo sapiens, UniProt P23443); conditions: ZY0511 1 µM, read-out: Inhibition rate
T18 construct: purchased Eurofins Pharma Discovery Services
Experimental: as §1

[19] = target: T19, Snk (Homo sapiens, UniProt Q9NYY3); conditions: ZY0511 1 µM, read-out: Inhibition rate
T19 construct: purchased Eurofins Pharma Discovery Services (KinaseProfiler)
Experimental: as §1

[20] = target: T20, DYRK2 (Homo sapiens, UniProt Q92630); conditions: ZY0511 1 µM, read-out: Inhibition rate
T20 construct: purchased Eurofins Pharma Discovery Services (KinaseProfiler)
Experimental: as §1

[21] = target: T21, ZAP-70 (Homo sapiens, UniProt P43403); conditions: ZY0511 1 µM, read-out: Activation rate
T21 construct: purchased Eurofins Pharma Discovery Services (KinaseProfiler)
Experimental: as §1

[22] = target: T22, IKKε (Homo sapiens, UniProt Q14164); conditions: ZY0511 1 µM, read-out: Activation rate
T22 construct: purchased Eurofins Pharma Discovery Services (KinaseProfiler)
Experimental: as §1

[23] = target: T23, Flt4 (Homo sapiens, UniProt P35916)
T23 construct: purchased Eurofins Pharma Discovery Services
Experimental: as §1

[24] = target: T24, EphA2 (Homo sapiens, UniProt P29317); conditions: ZY0511 1 µM, read-out: Activation rate
T24 construct: purchased Eurofins Pharma Discovery Services (KinaseProfiler)
Experimental: as §1

[25] = target: T25, PKCθ (Homo sapiens, UniProt Q04759); conditions: ZY0511 1 µM, read-out: Inhibition rate
T25 construct: purchased Eurofins Pharma Discovery Services
Experimental: as §1

[26] = target: T26, cKit (V560G) (Homo sapiens, UniProt P10721, V560G); conditions: ZY0511 1 µM, read-out: Inhibition rate
T26 construct: purchased Eurofins Pharma Discovery Services (KinaseProfiler)
Experimental: as §1

[27] = target: T27, cKit (Homo sapiens, UniProt P10721); conditions: ZY0511 1 µM, read-out: Activation rate
T27 construct: purchased Eurofins Pharma Discovery Services (KinaseProfiler)
Experimental: as §1

[28] = target: T28, EGFR (Homo sapiens, UniProt P00533); conditions: ZY0511 1 µM, read-out: Inhibition rate
T28 construct: purchased Eurofins Pharma Discovery Services (KinaseProfiler)
Experimental: as §1

[29] = target: T29, PKCη (Homo sapiens, UniProt P24723); conditions: ZY0511 1 µM, read-out: Activation rate
T29 construct: purchased Eurofins Pharma Discovery Services (KinaseProfiler)
Experimental: as §1

[30] = target: T30, TrkC (Homo sapiens, UniProt Q16288); conditions: ZY0511 1 µM, read-out: Inhibition rate
T30 construct: purchased Eurofins Pharma Discovery Services (KinaseProfiler)
Experimental: as §1

[31] = target: T31, FGFR3 (Homo sapiens, UniProt P22607); conditions: ZY0511 1 µM, read-out: Inhibition rate
T31 construct: purchased Eurofins Pharma Discovery Services (KinaseProfiler)
Experimental: as §1

[32] = target: T32, Yes (Homo sapiens, UniProt P07947); conditions: ZY0511 1 µM, read-out: Inhibition rate
T32 construct: purchased Eurofins Pharma Discovery Services
Experimental: as §1

[33] = target: T33, PKBα (Homo sapiens, UniProt P31749); conditions: ZY0511 1 µM, read-out: Inhibition rate
T33 construct: purchased Eurofins Pharma Discovery Services (KinaseProfiler)
Experimental: as §1

[34] = target: T34, Aurora-A (Homo sapiens, UniProt O14965); conditions: ZY0511 1 µM, read-out: Inhibition rate
T34 construct: purchased Eurofins Pharma Discovery Services (KinaseProfiler)
Experimental: as §1

[35] = target: T35, PI3 Kinase (p110α/p85α) (Homo sapiens, UniProt P42336); conditions: ZY0511 1 µM, read-out: Inhibition rate
T35 construct: purchased Eurofins Pharma Discovery Services (KinaseProfiler)
Experimental: as §1

[36] = target: T36, Fms (Homo sapiens, UniProt P07333); conditions: ZY0511 1 µM, read-out: Inhibition rate
T36 construct: purchased Eurofins Pharma Discovery Services (KinaseProfiler)
Experimental: as §1

[37] = target: T37, Bmx (Homo sapiens, UniProt P51813); conditions: ZY0511 1 µM, read-out: Inhibition rate
T37 construct: purchased Eurofins Pharma Discovery Services (KinaseProfiler)
Experimental: as §1

[38] = target: T38, KDR (Homo sapiens, UniProt P35968); conditions: ZY0511 1 µM, read-out: Inhibition rate
T38 construct: purchased Eurofins Pharma Discovery Services (KinaseProfiler)
Experimental: as §1

[39] = target: T39, EGFR (T790M, L858R) (Homo sapiens, UniProt P00533, L858R/T790M); conditions: ZY0511 1 µM
T39 construct: purchased Eurofins Pharma Discovery Services (KinaseProfiler)
Experimental: as §1

[40] = target: T40, CK1γ1 (Homo sapiens, UniProt Q9HCP0); conditions: ZY0511 1 µM, read-out: Inhibition rate
T40 construct: purchased Eurofins Pharma Discovery Services
Experimental: as §1

[41] = target: T41, Blk (Homo sapiens, UniProt P51451); conditions: ZY0511 1 µM, read-out: Inhibition rate
T41 construct: purchased Eurofins Pharma Discovery Services (KinaseProfiler)
Experimental: as §1

[42] = target: T42, TrkA (Homo sapiens, UniProt P04629); conditions: ZY0511 1 µM, read-out: Activation rate
T42 construct: purchased Eurofins Pharma Discovery Services (KinaseProfiler)
Experimental: as §1

T23 sequence (P35916 25-1363, species assumed): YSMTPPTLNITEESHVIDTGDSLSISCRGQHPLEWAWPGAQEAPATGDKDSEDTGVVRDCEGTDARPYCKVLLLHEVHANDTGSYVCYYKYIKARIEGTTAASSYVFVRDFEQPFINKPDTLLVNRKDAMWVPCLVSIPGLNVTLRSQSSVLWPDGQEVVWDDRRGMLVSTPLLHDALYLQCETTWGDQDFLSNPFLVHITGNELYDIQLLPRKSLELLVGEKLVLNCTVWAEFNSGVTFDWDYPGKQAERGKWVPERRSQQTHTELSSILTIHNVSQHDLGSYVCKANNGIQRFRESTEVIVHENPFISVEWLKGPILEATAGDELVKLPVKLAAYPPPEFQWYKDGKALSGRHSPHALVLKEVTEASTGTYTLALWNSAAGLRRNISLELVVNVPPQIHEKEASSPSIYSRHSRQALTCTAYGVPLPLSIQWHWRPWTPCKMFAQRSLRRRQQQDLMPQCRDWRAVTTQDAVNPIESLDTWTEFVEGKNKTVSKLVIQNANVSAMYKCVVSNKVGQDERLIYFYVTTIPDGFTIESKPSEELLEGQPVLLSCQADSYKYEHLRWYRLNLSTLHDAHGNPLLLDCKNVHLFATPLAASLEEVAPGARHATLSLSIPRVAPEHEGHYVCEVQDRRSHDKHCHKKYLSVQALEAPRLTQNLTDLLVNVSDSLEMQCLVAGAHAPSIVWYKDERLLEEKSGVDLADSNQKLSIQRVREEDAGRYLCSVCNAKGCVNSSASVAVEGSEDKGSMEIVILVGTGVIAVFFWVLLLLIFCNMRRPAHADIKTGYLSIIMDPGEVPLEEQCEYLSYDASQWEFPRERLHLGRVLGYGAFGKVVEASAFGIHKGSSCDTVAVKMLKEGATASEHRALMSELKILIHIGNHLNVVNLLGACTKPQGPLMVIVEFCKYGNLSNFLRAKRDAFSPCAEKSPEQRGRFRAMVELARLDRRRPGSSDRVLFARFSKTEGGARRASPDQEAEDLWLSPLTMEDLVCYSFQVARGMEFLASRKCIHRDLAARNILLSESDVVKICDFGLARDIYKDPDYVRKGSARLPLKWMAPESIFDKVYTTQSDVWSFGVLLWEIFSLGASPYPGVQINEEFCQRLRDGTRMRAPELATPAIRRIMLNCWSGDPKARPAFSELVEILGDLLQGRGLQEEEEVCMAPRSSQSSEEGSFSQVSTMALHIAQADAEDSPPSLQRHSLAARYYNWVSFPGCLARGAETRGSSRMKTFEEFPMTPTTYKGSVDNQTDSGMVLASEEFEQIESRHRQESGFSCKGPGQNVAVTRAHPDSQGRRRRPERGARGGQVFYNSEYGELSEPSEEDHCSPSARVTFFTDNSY
T5 sequence (P07332 whole entry): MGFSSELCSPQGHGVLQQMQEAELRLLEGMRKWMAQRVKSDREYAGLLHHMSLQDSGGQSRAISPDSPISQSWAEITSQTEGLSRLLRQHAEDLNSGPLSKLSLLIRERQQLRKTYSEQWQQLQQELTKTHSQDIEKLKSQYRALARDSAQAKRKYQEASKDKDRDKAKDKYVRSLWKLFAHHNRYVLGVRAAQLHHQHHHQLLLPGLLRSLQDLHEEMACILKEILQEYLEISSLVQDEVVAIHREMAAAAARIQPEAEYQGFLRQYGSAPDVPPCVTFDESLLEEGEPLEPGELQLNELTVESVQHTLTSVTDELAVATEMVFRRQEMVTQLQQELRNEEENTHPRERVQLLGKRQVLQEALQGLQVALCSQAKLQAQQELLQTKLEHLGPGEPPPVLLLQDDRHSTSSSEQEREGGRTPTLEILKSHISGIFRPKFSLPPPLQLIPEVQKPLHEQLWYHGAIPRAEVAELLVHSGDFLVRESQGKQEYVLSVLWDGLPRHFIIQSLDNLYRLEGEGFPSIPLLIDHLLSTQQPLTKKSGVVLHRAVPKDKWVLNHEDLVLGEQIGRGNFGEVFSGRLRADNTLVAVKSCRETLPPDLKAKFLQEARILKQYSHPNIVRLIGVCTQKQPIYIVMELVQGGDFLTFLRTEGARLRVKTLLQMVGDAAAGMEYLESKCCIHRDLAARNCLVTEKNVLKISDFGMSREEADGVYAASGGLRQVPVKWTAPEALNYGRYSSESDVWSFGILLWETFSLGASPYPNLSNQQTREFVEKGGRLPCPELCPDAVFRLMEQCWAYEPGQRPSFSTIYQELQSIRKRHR
T26 sequence (P10721 26-976 V560G): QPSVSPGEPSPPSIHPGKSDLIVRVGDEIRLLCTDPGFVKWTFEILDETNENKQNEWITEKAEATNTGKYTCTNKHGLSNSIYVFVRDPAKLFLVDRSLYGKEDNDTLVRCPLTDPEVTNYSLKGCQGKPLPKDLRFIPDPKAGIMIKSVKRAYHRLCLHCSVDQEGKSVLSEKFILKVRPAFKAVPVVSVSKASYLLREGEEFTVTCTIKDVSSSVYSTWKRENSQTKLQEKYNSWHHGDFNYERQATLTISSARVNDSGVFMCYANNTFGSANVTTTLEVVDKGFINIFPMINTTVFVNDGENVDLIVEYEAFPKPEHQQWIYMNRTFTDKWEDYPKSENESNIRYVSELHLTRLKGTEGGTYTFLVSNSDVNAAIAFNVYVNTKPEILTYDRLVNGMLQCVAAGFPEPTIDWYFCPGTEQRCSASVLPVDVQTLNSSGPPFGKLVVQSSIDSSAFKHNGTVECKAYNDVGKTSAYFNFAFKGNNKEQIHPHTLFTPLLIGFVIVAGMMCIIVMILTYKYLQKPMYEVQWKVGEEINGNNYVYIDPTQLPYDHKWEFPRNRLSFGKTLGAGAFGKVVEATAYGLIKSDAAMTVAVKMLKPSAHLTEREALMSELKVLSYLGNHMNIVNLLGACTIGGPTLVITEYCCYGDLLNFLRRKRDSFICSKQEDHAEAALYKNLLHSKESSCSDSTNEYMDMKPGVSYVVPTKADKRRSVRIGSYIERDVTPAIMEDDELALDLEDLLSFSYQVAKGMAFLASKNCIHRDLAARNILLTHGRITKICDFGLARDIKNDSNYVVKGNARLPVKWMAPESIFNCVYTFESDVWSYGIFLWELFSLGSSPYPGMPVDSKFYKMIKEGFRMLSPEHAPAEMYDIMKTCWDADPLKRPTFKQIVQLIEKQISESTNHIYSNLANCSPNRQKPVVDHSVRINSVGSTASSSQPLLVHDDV
T21 sequence (P43403 whole entry): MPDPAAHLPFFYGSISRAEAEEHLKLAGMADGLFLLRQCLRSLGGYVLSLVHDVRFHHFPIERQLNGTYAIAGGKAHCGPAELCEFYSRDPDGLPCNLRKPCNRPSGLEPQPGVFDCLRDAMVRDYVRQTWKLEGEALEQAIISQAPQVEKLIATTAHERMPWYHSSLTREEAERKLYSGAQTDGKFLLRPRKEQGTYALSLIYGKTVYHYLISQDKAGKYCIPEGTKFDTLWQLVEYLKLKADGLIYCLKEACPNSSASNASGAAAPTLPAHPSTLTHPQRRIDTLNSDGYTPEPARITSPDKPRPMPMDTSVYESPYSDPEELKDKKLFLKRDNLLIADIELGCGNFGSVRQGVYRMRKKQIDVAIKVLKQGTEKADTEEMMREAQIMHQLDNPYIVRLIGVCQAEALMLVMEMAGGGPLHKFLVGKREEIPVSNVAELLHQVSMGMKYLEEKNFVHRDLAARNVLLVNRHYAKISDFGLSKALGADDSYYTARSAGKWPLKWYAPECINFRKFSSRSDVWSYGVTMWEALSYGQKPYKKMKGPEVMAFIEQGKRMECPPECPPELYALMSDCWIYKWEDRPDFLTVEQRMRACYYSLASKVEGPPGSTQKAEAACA
T30 sequence (Q16288 32-839): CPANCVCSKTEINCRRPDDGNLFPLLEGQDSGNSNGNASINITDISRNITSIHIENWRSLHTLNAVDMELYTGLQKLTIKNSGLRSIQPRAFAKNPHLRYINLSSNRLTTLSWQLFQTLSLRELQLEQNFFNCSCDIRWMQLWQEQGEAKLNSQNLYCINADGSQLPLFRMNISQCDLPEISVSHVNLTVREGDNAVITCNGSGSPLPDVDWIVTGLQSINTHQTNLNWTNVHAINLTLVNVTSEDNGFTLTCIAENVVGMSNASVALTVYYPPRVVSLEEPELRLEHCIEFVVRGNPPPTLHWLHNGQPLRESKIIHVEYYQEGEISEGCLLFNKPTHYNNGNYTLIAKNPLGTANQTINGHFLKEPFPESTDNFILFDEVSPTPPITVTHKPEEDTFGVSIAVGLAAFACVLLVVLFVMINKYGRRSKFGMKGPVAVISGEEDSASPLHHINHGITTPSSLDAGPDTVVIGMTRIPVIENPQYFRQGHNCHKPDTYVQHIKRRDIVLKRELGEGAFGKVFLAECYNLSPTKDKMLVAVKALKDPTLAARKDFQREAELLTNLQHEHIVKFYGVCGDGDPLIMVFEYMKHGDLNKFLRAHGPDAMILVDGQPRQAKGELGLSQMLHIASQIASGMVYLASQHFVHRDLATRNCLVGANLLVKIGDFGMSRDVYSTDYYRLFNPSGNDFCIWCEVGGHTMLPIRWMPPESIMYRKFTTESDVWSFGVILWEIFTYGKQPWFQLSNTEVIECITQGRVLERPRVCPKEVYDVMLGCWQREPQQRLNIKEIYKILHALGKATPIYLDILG
T1 sequence (P54759 577-998 limits assumed): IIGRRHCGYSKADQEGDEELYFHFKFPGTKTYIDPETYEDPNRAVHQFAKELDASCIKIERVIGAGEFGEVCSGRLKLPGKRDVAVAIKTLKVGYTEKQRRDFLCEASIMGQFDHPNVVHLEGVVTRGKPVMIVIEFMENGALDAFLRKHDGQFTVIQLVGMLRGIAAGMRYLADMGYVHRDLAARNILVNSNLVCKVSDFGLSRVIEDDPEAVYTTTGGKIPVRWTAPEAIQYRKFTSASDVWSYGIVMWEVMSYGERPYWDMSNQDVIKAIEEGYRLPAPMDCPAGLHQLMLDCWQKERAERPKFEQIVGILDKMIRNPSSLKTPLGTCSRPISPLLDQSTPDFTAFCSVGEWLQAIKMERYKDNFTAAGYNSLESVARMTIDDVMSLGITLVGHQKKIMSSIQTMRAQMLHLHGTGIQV
T27 sequence (P10721 26-976): as the sequence (P10721 26-976 V560G) above, with G535V counted along it

O=C(N/N=C1\CCc2c(Cl)ccc(O)c21)c1cccc(S(=O)(=O)N2CCOCC2)c1 [ZY0511, (E)‐N'‐(2, 3‐dihydro‐1H‐inden‐1‐ylidene) benzohydrazides]
inhibition at 1 µM [1]: 2% | inhibition at 1 µM [2]: 13% | activation at 1 µM [3]: 10% | activation at 1 µM [4]: 2% | inhibition at 1 µM [5]: 24% | inhibition at 1 µM [6]: 8% | activation at 1 µM [7]: 2% | inhibition at 1 µM [8]: 8% | activation at 1 µM [9]: 1% | IC50 [10]: 9.8 µM | inhibition at 1 µM [11]: 3% | inhibition at 1 µM [12]: 51% | activation at 1 µM [13]: 15% | inhibition at 1 µM [14]: 13% | inhibition at 1 µM [15]: 6% | inhibition at 1 µM [16]: 9% | inhibition at 1 µM [17]: 43% | inhibition at 1 µM [18]: 11% | inhibition at 1 µM [19]: 4% | inhibition at 1 µM [20]: 5% | activation at 1 µM [21]: 4% | activation at 1 µM [22]: 1% | IC50 [23]: > 10 µM | inhibition at 1 µM ([23]; ZY0511 1 µM, read-out: Inhibition rate): 62% | activation at 1 µM [24]: 5% | inhibition at 1 µM [25]: 3% | inhibition at 1 µM [26]: 7% | activation at 1 µM [27]: 14% | inhibition at 1 µM [28]: 7% | activation at 1 µM [29]: 2% | inhibition at 1 µM [30]: 7% | inhibition at 1 µM [31]: 20% | inhibition at 1 µM [32]: 0% | inhibition at 1 µM [33]: 4% | inhibition at 1 µM [34]: 17% | inhibition at 1 µM [35]: 6% | inhibition at 1 µM [36]: 7% | inhibition at 1 µM [37]: 17% | inhibition at 1 µM [38]: 30% | Activation rate [39]: 2% | inhibition at 1 µM [40]: 12% | inhibition at 1 µM [41]: 29% | activation at 1 µM [42]: 3%
